The target of the test is T1, human MC4 receptor (Homo sapiens, UniProt P32245).
T1 construct: purchased Biolinks Co; host or cells: HEK-293 cell membranes
The test can be described thus: MC4 receptor binding assay ([125I]Nle4-D-Phe7-α-MSH displacement). Conditions: HEK-293 cell membranes expressing the human MC4 receptor; [125I]Nle4-D-Phe7-α-MSH 0.2 nM; 25° C., 120 minutes. The procedure:
Experiment 1 [MC4 Receptor Binding Assay]
MC4 receptor binding assay was carried out according to the method described in Pharmacology & Toxicology, 79, 161-165, 1996. HEK-293 cell membranes expressing the human MC4 receptor were purchased from Biolinks Co. The cell membranes were homogenized in a 50 mM Tris hydrochloric acid buffer solution (pH 7.4) containing 2 mM ethylenediamine tetraacetic acid, 10 mM calcium chloride and 100 μM phenylmethanesulfonylfluoride. The homogenate was centrifuged at 48,000×g for 20 minutes at 4° C. The precipitate obtained by centrifugation was again homogenized in the same buffer solution, and the homogenate was centrifuged at 48,000×g for 20 minutes at 4° C. This procedure was repeated twice. The precipitate was suspended in 50 mM Tris hydrochloric acid buffer solution (pH 7.4) containing 2 mM ethylenediamine tetraacetic acid, 10 mM calcium chloride, 100 μM phenylmethanesulfonylfluoride and 0.1% bovine serum albumin to adjust to a protein concentration of 100 μg/ml to give a crude membrane preparation which was used for the binding assay. The crude membrane preparation (0.25 ml, 25 μg protein) was reacted with [^125I]Nle^4-D-Phe^7-α-MSH (final concentration; 0.2 nM) at 25° C. for 120 minutes. […] The radioactivity on the filter paper was measured in a gamma-counter. […] The IC50 value was calculated from the inhibition curve in the concentration of 10^−9-10^−5.

We go through one compound from patent US20040147567A1, “Arginine derivatives” (priority 2001, published 2004).

A word on the IC50: it is the concentration at which inhibition is half-maximal. A lower IC50 goes with inhibition by little substance.

T1 sequence (P32245 whole entry): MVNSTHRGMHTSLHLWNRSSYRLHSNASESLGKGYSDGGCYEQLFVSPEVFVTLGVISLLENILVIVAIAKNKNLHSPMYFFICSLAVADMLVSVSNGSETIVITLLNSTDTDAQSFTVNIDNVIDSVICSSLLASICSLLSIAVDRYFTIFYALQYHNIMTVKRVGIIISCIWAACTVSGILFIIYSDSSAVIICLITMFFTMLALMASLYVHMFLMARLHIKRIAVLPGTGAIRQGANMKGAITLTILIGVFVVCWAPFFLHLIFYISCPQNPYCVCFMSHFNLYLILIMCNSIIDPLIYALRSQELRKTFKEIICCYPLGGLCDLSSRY

Regarding `CC(=O)N[C@H](Cc1cccc2ccccc12)C(=O)N[C@@H](CCCNC(=N)N)C(=O)N[C@H](Cc1ccc2ccccc2c1)C(N)=O` [Compound 224], the IC50 turned out to be 690 nM.
